The values below are quoted from earlier work in patent publication US9540355B2, “Irciniastatin analogues” (priority 2013, dated 2017).

The subject of one data set is NHDF. Particulars: normal; cited from earlier work.
For the next data set, the system named is PC3. The settings on record: PC3, prostate; cited from earlier work.
The next data set concerns DU145. Particulars: DU145, prostate; cited from earlier work.
For another data set, the system named is MB231. The settings on record: MB231, breast; cited from earlier work.
Another data set relates to MKN45. The settings on record: MKN45, gastric; cited from earlier work.
The subject of a further data set is ACHN. Particulars: kidney; cited from earlier work.
The subject of another data set is HOP62. Particulars: HOP62, lung; cited from earlier work.
A further data set relates to SW620. Particulars: SW620, colon; cited from earlier work.
In a further data set the test system is H226. Particulars: H226, lung; cited from earlier work.

Turning to C11-Deoxyirciniastatin [compound 29], the IC50 in the data set with NHDF was 0.066 ± 0.004 nM; in the data set on PC3 it was 0.073 ± 0.006 nM; in the data set on DU145, 0.149 ± 0.005 nM; with MB231, 0.142 ± 0.007 nM; with MKN45 it was 0.076 ± 0.004 nM; in the data set with ACHN, 0.265 ± 0.008 nM. Further, the results for the IC50 in the data set on HOP62, with SW620 and in the data set with H226 were 0.055 ± 0.002 nM, 0.16 ± 0.015 nM and 0.034 ± 0.004 nM, respectively.
